Laboratory results reported in PubChem BioAssay (NCI).
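Grown in 96-well plates, cells were treated for 48 hours with each compound at five concentrations. Insufficient inhibition: endpoint recorded as highest concentration tested. TGI: concentration producing complete growth inhibition.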

Tests used:
Assay in all cases: NCI-60 cell line screen, 48 h
[1] = test system: K-562 leukemia
[2] = test system: HS 578T breast
[3] = test system: HCT-15 colon
[4] = test system: MDA-MB-435
[5] = test system: MDA-N
[6] = test system: HOP-62 NSCLC
[7] = test system: SNB-19 CNS
[8] = test system: MDA-MB-231 breast
[9] = test system: U251 CNS
[10] = test system: OVCAR-5 ovarian
[11] = test system: CAKI-1 renal
[12] = test system: SF-539 CNS
[13] = test system: UO-31 renal
[14] = test system: HCT-116 colon
[15] = test system: SK-MEL-5 melanoma
[16] = test system: COLO 205 colon
[17] = test system: DU-145 prostate
[18] = test system: LOX IMVI melanoma
[19] = test system: HCC-2998 colon
[20] = test system: HT29 colon
[21] = test system: ACHN renal
[22] = test system: PC-3 prostate
[23] = test system: SK-MEL-28 melanoma
[24] = test system: MALME-3M melanoma
[25] = test system: SN12C renal
[26] = test system: NCI-H460 lung
[27] = test system: NCI-H226 lung
[28] = test system: SW-620 colon
[29] = test system: T-47D breast
[30] = test system: HL-60(TB) leukemia
[31] = test system: NCI/ADR-RES ovarian
[32] = test system: 786-0 renal
[33] = test system: A498 renal
[34] = test system: BT-549 breast
[35] = test system: MOLT-4 leukemia
[36] = test system: OVCAR-4 ovarian
[37] = test system: MCF7 breast
[38] = test system: HOP-92 NSCLC
[39] = test system: CCRF-CEM leukemia
[40] = test system: UACC-62 melanoma
[41] = test system: UACC-257 melanoma
[42] = test system: SNB-75 CNS
[43] = test system: KM12 colon
[44] = test system: SK-MEL-2 melanoma
[45] = test system: NCI-H522 lung
[46] = test system: M14 melanoma
[47] = test system: TK-10 renal
[48] = test system: NCI-H23 lung
[49] = test system: IGROV1 ovarian
[50] = test system: EKVX NSCLC
[51] = test system: SF-268 CNS
[52] = test system: OVCAR-3 ovarian
[53] = test system: OVCAR-8 ovarian
[54] = test system: RXF 393 renal
[55] = test system: A549 NSCLC
[56] = test system: SF-295 CNS
[57] = test system: SK-OV-3 ovarian

Compound: COc1c(OC)c(OC)c2c(=O)c(OC)c(-c3ccc4c(c3)OCO4)oc2c1OC
- TGI [1]: > 100 µM
- TGI [2]: > 100 µM
- TGI [3]: > 100 µM
- TGI [4]: > 100 µM
- TGI [5]: > 100 µM
- TGI [6]: > 100 µM
- TGI [7]: > 100 µM
- TGI [8]: > 100 µM
- TGI [9]: > 100 µM
- TGI [10]: > 100 µM
- TGI [11]: > 100 µM
- TGI [12]: > 100 µM
- TGI [13]: > 100 µM
- TGI [14]: > 100 µM
- TGI [15]: > 100 µM
- TGI [16]: > 100 µM
- TGI [17]: > 100 µM
- TGI [18]: > 100 µM
- TGI [19]: > 100 µM
- TGI [20]: > 100 µM
- TGI [21]: > 100 µM
- TGI [22]: > 100 µM
- TGI [23]: > 100 µM
- TGI [24]: > 100 µM
- TGI [25]: > 100 µM
- TGI [26]: > 100 µM
- TGI [27]: > 100 µM
- TGI [28]: > 100 µM
- TGI [29]: > 100 µM
- TGI [30]: 33.4 µM
- TGI [31]: > 100 µM
- TGI [32]: > 100 µM
- TGI [33]: > 100 µM
- TGI [34]: > 100 µM
- TGI [35]: > 100 µM
- TGI [36]: > 100 µM
- TGI [37]: > 100 µM
- TGI [38]: > 100 µM
- TGI [39]: > 100 µM
- TGI [40]: > 100 µM
- TGI [41]: > 100 µM
- TGI [42]: > 100 µM
- TGI [43]: > 100 µM
- TGI [44]: > 100 µM
- TGI [45]: > 100 µM
- TGI [46]: > 100 µM
- TGI [47]: > 100 µM
- TGI [48]: > 100 µM
- TGI [49]: > 100 µM
- TGI [50]: > 100 µM
- TGI [51]: > 100 µM
- TGI [52]: > 100 µM
- TGI [53]: > 100 µM
- TGI [54]: > 100 µM
- TGI [55]: > 100 µM
- TGI [56]: > 100 µM
- TGI [57]: > 100 µM
